According to BindingDB's records for doi:10.1016/j.bmcl.2012.11.036 (University of Namur, 2012):

Target: Indoleamine 2,3-dioxygenase 1 (Homo sapiens, UniProt P14902)
Experiment: Inhibition of human recombinant IDO1 using L-Trp as substrate assessed as kynurenine level after 30 mins

Chain of Indoleamine 2,3-dioxygenase 1 (P14902 whole entry): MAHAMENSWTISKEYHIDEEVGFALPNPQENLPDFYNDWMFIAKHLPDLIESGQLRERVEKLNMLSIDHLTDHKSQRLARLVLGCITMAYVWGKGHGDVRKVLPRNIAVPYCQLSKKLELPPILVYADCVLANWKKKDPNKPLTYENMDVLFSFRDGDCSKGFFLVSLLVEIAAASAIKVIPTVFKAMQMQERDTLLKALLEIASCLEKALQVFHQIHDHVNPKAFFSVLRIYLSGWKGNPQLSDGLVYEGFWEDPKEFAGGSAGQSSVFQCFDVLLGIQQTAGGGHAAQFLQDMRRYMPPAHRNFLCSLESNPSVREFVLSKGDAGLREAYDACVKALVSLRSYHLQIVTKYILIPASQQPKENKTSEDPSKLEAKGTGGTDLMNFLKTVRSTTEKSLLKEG

IC50 [µM] | SMILES
5.6 | COc1ccc(C2CN=C3C(=O)c4c(CCN)cn(S(=O)(=O)c5ccc(C)cc5)c4C(=O)C32)cc1 (configuration not stated)
5.6 | COc1ccc(C2CN=C3C(=O)c4ccn(S(=O)(=O)c5ccc(C)cc5)c4C(=O)C32)cc1 (configuration not stated)
